Experimental data: patent US7521463B2, “Immunomodulatory compounds” (University of Maryland, Baltimore, priority 2000, dated 2009)
Entries after “also recorded” stand apart in the source; their conditions may differ.

Tests used:
[1] = system: Jurkat cells; experiment: Effect on Jurkat cell viability / growth; format: cell-based; conditions: 10 μM
Method: Compounds can be tested to determine whether they are cytotoxic or cytostatic. To test whether a compound which inhibits OKT-3-mediated stimulation of tyrosine phosphorylation has a cytotoxic effect on Jukat cells, its effect on the growth of Jurkat cells is tested.

[2] = system: OKT-3 activated Jurkat cells; experiment: Jurkat cell activation-dependent phosphorylation (OKT-3, anti-phosphotyrosine western blot); format: cell-based; conditions: for effect on tyrosine phosphorylation of Jurkat cellular proteins, dose response: OKT-3, 0.1, 1, 10 and 100 μM; for effect on cellular tyrosine phosphorylation stimulated by OKT-3: compound 100 μM, 5 min at 37° C.
Method: Phosphorylation in Jurkat cells activated by the monoclonal antibody, OKT-3, is correlated with T-cell activation.
A. Compounds are tested for their effect on OKT-3 activated Jurkat cells. OKT-3 is a monoclonal antibody against CD3-ε chain. Treatment of Jurkat cells with OKT-3 antibody for 5 min at 37° C. activates Jurkat cells and induces tyrosine phosphorylation of several cellular proteins. […] Experiments are carried out to determine if compounds of the invention, or known compounds which can serve as standards, affect cellular tyrosine phosphorylation stimulated by OKT-3 in Jurkat cells.
The assay is performed as follows: Jurkat cells (1×10^6 cells) in RPMI 1640 supplemented with 10% fetal bovine serum (FBS) are treated with OKT-3 antibody (0.2 μg) and compounds (100 μM) for 5 min at 37° C. Cultures are immediately placed on ice after the incubation period, washed 3 times with cold PBS and lysed in 20 μl of SDS-sample buffer. Samples are briefly sonicated and boiled for 5 min and applied to SDS-PAGE (12% gel). After SDS-PAGE, proteins are blotted onto Immobilon P membrane (Millipore) for western blot analysis. Membranes are blocked overnight with 5% dried milk in TBST (Tris buffered saline containing 1% triton X-100). After washing, blots are incubated with monoclonal anti-phosphotyrosine antibody for 1 h in TBST followed by 1 hr incubation with horseradish peroxidase (HRP)-conjugated goat anti-mouse IgG. Blots are developed using enhanced chemiluminescence (ECL, Pierce).
The assay is performed as follows: Western blot analyses using anti-phosphotyrosine antibody are performed. Compounds (e.g., inventive compounds I′, II′ and III′) are added at concentrations of 0.1, 1, 10 and 100 μM. Cells are cultured as above.

[3] = system: IL-2 production in Jurkat cells; experiment: Inhibition of IL-2 production in OKT-3 treated Jurkat cells (RIA); format: cell-based, human
Method: Interleukin 2 (IL-2) is an autocrine growth factor for T cells, the production of which requires T cell antigen receptor and co-receptor generated activation signals in normal T cells. The production of IL-2 is a hallmark of T cell activation signaling, leading to the clonal expansion of antigen-specific T cell clones. In Jurkat cells, treatment of cells with OKT-3 leads to the production of IL-2. […] For example, about 50% inhibition of IL-2 production is observed when cells are treated with 10 μM compound III′ at the time of OKT-3 treatment. […] Unlike the complete inhibition of OKT-3 induced tyrosine phosphorylation, the inhibition of IL-2 production by compound III′ is partial.
The assay is performed as follows: Jurkat cells (1×10^6 cells) are treated with OKT-3 antibody (0.2 μg) in the presence or absence of compounds (e.g., Compound III′) (0.1, 1 and 10 μM) for 24 h in RPMI 1640+10% FBS. At the end of the incubation period, culture media are harvested and assayed for human IL-2 by RIA. Cells treated with OKT-3 only and PMA+Ionomycin serves as a positive control. Untreated cells serve as a negative control. IL-2 production is not detected in untreated cells. Cells treated with 10 μM of Compound III′ are shown to inhibit IL-2 production by 44%. The standard deviation is 0.23 pg/ml.

[4] = target: p56^lck (Homo sapiens, UniProt P06239); experiment: p56^lck kinase activity (general statement); format: biochemical
Sequence of p56^lck (P06239 whole entry): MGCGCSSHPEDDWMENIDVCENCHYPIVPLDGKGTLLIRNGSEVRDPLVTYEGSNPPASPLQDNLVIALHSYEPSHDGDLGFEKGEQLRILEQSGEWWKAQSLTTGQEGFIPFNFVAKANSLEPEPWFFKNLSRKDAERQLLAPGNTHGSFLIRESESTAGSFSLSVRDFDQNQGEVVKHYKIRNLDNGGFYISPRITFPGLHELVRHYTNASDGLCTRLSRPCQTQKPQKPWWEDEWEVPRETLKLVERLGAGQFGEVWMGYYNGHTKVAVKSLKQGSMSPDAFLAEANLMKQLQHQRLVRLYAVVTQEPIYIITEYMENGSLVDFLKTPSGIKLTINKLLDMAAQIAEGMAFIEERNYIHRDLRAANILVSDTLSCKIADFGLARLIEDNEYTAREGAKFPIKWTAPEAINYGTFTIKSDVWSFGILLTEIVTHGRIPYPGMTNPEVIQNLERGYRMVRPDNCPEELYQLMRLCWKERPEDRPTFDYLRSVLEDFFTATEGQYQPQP

effect on p56^lck kinase activity [4] | SMILES | cytotoxic effect on Jurkat cells [1] | effect on the growth of Jurkat cells [1] | time after addition of compound at which Jurkat cells resume normal rate of growth [1] [h] | effect on tyrosine phosphorylation at the lowest concentration ([2]; OKT-3, 0.1 μM) | effect on tyrosine phosphorylation of Jurkat cellular proteins, dose response [2] | effect on cellular tyrosine phosphorylation stimulated by OKT-3 [2] | inhibition at 10 µM ([3]; Homo sapiens, Jurkat, 24 h, 10 μM, at the time of OKT-3 treatment) [%] | effect on IL-2 production at lower concentrations ([3]; lower concentrations (0.1, 1 μM), OKT-3, 24 h)
inhibits p56^lck kinase activity | O=C(Sc1ccccn1)c1ccc(Oc2ccc(Cl)cc2Cl)c([N+](=O)[O-])c1 [Compound III′] | no cytotoxic effect is observed | some cytostatic effect | 24 | inhibits tyrosine phosphorylation | completely inhibits tyrosine phosphorylation of cellular proteins | inhibitory activity | ~50 | no observable effect
activates p56^lck kinase activity | CC(=O)OCc1cccc2cccc(Sc3ccccc3C(=O)O)c12 [Compound I′] |  |  |  |  | significantly stimulate tyrosine phosphorylation of Jurkat cellular proteins in a dose-dependent manner; also recorded: dose-dependent stimulation of tyrosine phosphorylation | stimulatory activity |  | 
